This note sets out measurements from the METLIN SMRT retention time set (Domingo-Almenara et al. 2019).

Structures are written as SMILES.

A short description of the series: gradient 5% acetonitrile 3 min, to 50% in 2 min, to 85% in 15 min, held 3 min, 100 µL/min. The settings on record: column: Zorbax Extend-C18 2.1 x 50 mm; eluents: water / acetonitrile, 0.1% formic acid. Put shortly:
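A Zorbax Extend-C18 column (2.1 × 50 mm, 1.8 μm) run at 100 μL/min with water and acetonitrile, both containing 0.1% formic acid, separated mixtures of ~100 pure standards. The HPLC was coupled to a quadrupole time-of-flight mass spectrometer operated in positive and negative ionization mode, with dead and dwell volumes of 40 μL and 900 μL. Each retention time was taken from a computationally picked adduct peak that was then manually inspected.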
Take `O=C(Nc1c(C(=O)N2CCN(c3ccccn3)CC2)[nH]c2ccccc12)c1ccc(Cl)cc1`: the RP-LC retention time came out at 678 s.
`CCc1nc(-c2ccc(-c3noc(COc4ccc(F)cc4)n3)cc2)cs1`: the RP-LC retention time came to 1310 s.
`CCCn1c(=O)sc2cc(S(=O)(=O)N3CCC(C(=O)Nc4ccc(C)cc4)CC3)ccc21` registered an RP-LC retention time of 1010 s.
Molecule `Cc1cc(C(=O)NCc2cccc(F)c2)nc2cc(-c3cccs3)nn12` registered an RP-LC retention time of 1090 s.
Molecule `Cc1c(S(=O)(=O)CCNC(=O)Nc2ccc3c(c2)OCO3)c2ccccc2n1C` showed an RP-LC retention time of 729 s.
The figure for `O=C(NCc1[nH]nc2ccccc12)c1ccc(Br)o1` is 725 s; for `CN(C)C(=O)c1cc2c(s1)CCC(C(=O)NCc1nc3ccccc3n1C)C2` (stereo not given) it is 595 s; for `CC(C)NC(=O)c1ccc2c(c1)NC(=O)C1CCCCN21` (stereo not given) it is 692 s.
The molecule `CC(C)c1noc(-c2ccnc(-n3cnc(C(=O)N4CCSCC4)c3)c2)n1` showed an RP-LC retention time of 863 s.
`CCS(=O)(=O)N1CC(=O)N(c2ccc(C)c(F)c2)C(C)(C(=O)NC2CCCCCC2)C1` (stereo not given) displayed an RP-LC retention time of 968 s.
Next, `Cc1cc(N2CCOCC2)n2nc(CN3CCN(c4ccccc4)CC3)nc2n1`: 588 s; `O=C(Cc1cccn1-c1ccc(Cl)cc1)NC1CCCC1`: 945 s.
The figure for `NC(=O)c1c(NC(=O)C2=COCCO2)sc2c1CCCCC2` is 987 s; for `Cc1cccc(-c2nnc(SCC(=O)N3CCC(C)CC3)o2)c1` it is 969 s; for `CS(=O)(=O)c1cccc(C(=O)Nc2nnc(-c3ccno3)o2)c1` it is 603 s.
`CCCCNC(=O)C1CCN(c2cc(N3CCCCC3)ncn2)CC1` came in with an RP-LC retention time of 642 s.
`O=C(c1ccc2c(c1)CCC(=O)N2Cc1ccccc1)N1CCN(c2ccccc2F)CC1` gave an RP-LC retention time of 967 s.
Next, `CN(Cc1ccccc1)C(=O)CN1C(=O)C2CCCCN2c2ccc(S(=O)(=O)N3CCCC3)cc21` (stereo not given): 987 s.
Consider `O=C(c1cn(-c2ccc(S(=O)(=O)N3CCOCC3)cc2)cn1)N1CCN(c2ncccn2)CC1`, for which the RP-LC retention time amounted to 666 s.
`CCCc1ccc(S(=O)(=O)N2CCC(c3noc(-c4ccc(C)cc4)n3)CC2)cc1`: the RP-LC retention time was 1370 s.
`CS(=O)(=O)N1CCC(C(=O)NCc2ccc(Cl)cc2)Oc2ccccc21` (stereo not given) showed an RP-LC retention time of 1010 s.
In turn, `CCOc1ccc(OCC)c(NC(=O)C(C)Oc2ccc(=O)n(-c3ccc(F)cc3)n2)c1` (stereo not given) gave an RP-LC retention time of 953 s.
`Cc1cccc(NC(=O)C2CCN(S(=O)(=O)c3cc(C(=O)N4CCCC4)n(C)c3)CC2)n1` registered an RP-LC retention time of 653 s.
With `COC(=O)c1sc2cccc(F)c2c1S(=O)(=O)N1CCC(C(N)=O)(N2CCCCC2)CC1`, the RP-LC retention time is 649 s.
In turn, `COc1cccc(-c2nc(-c3cccc(-c4ccnn4C)c3)no2)c1OC` gave an RP-LC retention time of 1020 s.
The figure for `COc1ccc(-c2nnc(-c3ccccc3)o2)cc1S(=O)(=O)NC(C)C` is 870 s; for `OC[C@@H]1CNC[C@H]1C1CCN(Cc2cccc(Cl)c2F)CC1` it is 806 s; for `CNC(=O)c1cccn1Cc1ccc(F)cc1` it is 791 s.
`COC(=O)c1ccc(CN2CC(=O)N3CCCC3C2=O)cc1` (stereo not given) had an RP-LC retention time of 616 s.
`CC(=O)Nc1nsc(N2CCC(C(=O)NCc3ccc4c(c3)OCO4)CC2)n1`: the RP-LC retention time came to 641 s.
`O=C(CN1C(=O)COc2ccc(C(=O)N3CCCC3)cc21)NCCN1CCCCCC1` yielded an RP-LC retention time of 589 s.
The molecule `Nc1cc(C2CCN(C(=O)c3cncc(Br)c3)CC2)no1` showed an RP-LC retention time of 620 s.
Regarding `CCOc1cc(CN2CCn3c(nn(CC4CC4)c3=O)C2)ccc1O`, the RP-LC retention time came to 606 s.
Regarding `CCSc1ccc(-c2cccc(NC(=O)CC)c2)nn1`, the RP-LC retention time was found to be 787 s.
Molecule `COc1ccc(-c2noc(C3CCCN3C(=O)c3sccc3C)n2)cc1` (stereo not given) had an RP-LC retention time of 984 s.
The figure for `O=C(Nc1ccc(OCc2nnc(-c3ccccc3)o2)cc1)C1CCCC1` is 885 s.
In the case of `Cc1nc(-c2ccccc2)cc2nn(CC(=O)Nc3ccc(F)c(Cl)c3)c(=O)n12`, the RP-LC retention time was 1010 s.
The figure for `Cc1nc(-c2csc(S(=O)(=O)N3CCCC(C(=O)N4CCc5ccccc54)C3)c2)no1` (stereo not given) is 1020 s.
Molecule `Cc1c(S(=O)(=O)N2CCC(Cc3ccccc3)CC2)c(=O)n(C)c(=O)n1C` yielded an RP-LC retention time of 870 s.
The figure for `CCOc1ccccc1NC(=O)Cn1nnc(C(=O)Nc2cc(Cl)ccc2OC)c1N` is 970 s; for `COCCN1CC2(CCN(S(=O)(=O)c3ccccc3Cl)CC2)C1c1ccccc1` (stereo not given) it is 719 s; for `COc1cc2c(cc1OC)C(C(=O)NCC1COc3ccccc3O1)C(c1cccs1)N(C)C2=O` (stereo not given) it is 842 s.
Next, `N#C/C(=C\c1c[nH]c2ccccc12)C(N)=O`: 713 s.
Next, `COCCn1c(SCc2nc(-c3ccc(C)cc3)no2)nc2cc3c(cc2c1=O)OCO3`: 1100 s; `Cc1cccc2nnc(N3CCCC(C(=O)NC4CCCC4)C3)n12` (stereo not given): 597 s; `CCn1cc(S(=O)(=O)Nc2cccc(C)c2C)c2cccnc21`: 868 s.
The molecule `Cc1ccc(C)c(Nc2nc(-c3ccccc3)cs2)c1` came in with an RP-LC retention time of 1200 s.
Next, `COc1ccc2[nH]cc(CCNC(=O)c3ccc(N4CCCC4)c(S(=O)(=O)N4CCCC4)c3)c2c1`: 921 s.
In turn, `Fc1cccc(-c2noc(-c3ccc(N4CCN(C5CCCCC5)CC4)nc3)n2)c1` displayed an RP-LC retention time of 814 s.
Next, `COc1ccc(-c2noc(C3(NC(=O)c4ccccc4OC)CCCCC3)n2)cc1`: 1210 s; `CC(=O)N1CCc2ccccc2C1C(=O)NCc1ccc(C)c(C)c1` (stereo not given): 833 s; `COc1ccc2[nH]c(-c3ccccc3)c(CCNC(C)=O)c2c1`: 832 s.
Molecule `CCC1CCCCN1C(=O)c1cnc2nc(C)ccc2c1Nc1cc(OC)ccc1OC` (stereo not given) returned an RP-LC retention time of 689 s.
As for `CCC1(C(=O)Nc2ccc(OC)c(F)c2)CCCCC(=O)N1` (stereo not given), the RP-LC retention time came out at 720 s.
`Cc1ccc(CNC(=O)N2CCN(CCn3c(C(F)(F)F)nc4cccnc43)CC2)cc1` showed an RP-LC retention time of 661 s.
The molecule `O=S(=O)(c1ccccc1)N1CCC(n2cnnc2-c2ccccc2)CC1` displayed an RP-LC retention time of 749 s.
On to `COc1ccc(CNC(=O)C(=O)NCC(c2ccc3c(c2)OCO3)N2CCOCC2)cc1` (stereo not given), for which the RP-LC retention time was found to be 643 s.
`CN(C)c1ccc(CNC(=O)CCC(=O)N2CCCn3nc(-c4cccn4C)cc32)cc1` registered an RP-LC retention time of 599 s.
For the molecule `CCN1CCC2(CC1)N=C(c1ccc3c(c1)OCO3)CC(c1cc(Br)ccc1O)N2` (stereo not given), the RP-LC retention time is 634 s.
As to `COc1ccc(-n2c(=O)c(C(=O)NC(C)c3ccccc3)c(O)c3cccnc32)cc1` (stereo not given), the RP-LC retention time amounted to 1180 s.
`COc1cc(OC)cc(-c2nc(-c3cccc(-c4ccn[nH]4)c3)no2)c1`: the RP-LC retention time is 1010 s.
The molecule `O=C(Nc1cnn(-c2ncc(N3CCSCC3)cn2)c1)C1CCOC1` (stereo not given) registered an RP-LC retention time of 640 s.
For the molecule `Cc1ccc(-c2csc(NC(=O)COc3cc(C)cc(C)c3)n2)cc1`, the RP-LC retention time is 1270 s.
In turn, `CNC(=O)c1sc(Nc2ccc(Cl)cn2)nc1C` came in with an RP-LC retention time of 687 s.
`O=C(Cc1csc(-c2ccccc2)n1)Nc1nc(-c2cccc(Br)c2)cs1`: the RP-LC retention time was determined as 1270 s.
Next, `Cc1c(Cl)cccc1Nc1c(-c2ccc(N(C)C)cc2)nc2cnccn12`: 961 s; `Cc1ccc(CN2C[C@@H](CO)[C@H](c3nc(-c4cccnc4)no3)C2)o1`: 596 s; `Cc1nnc(SCC(=O)N2CCN(c3nnnn3-c3ccccc3)CC2)s1`: 653 s.
`COc1ccc(Cl)cc1NC(=O)COc1nc(C)nc2ccccc12` showed an RP-LC retention time of 840 s.
Consider `COc1ccc(S(=O)(=O)N2CCC3(CC2)c2nccn2CCN3C)cc1OC`, for which the RP-LC retention time worked out at 610 s.
`Cn1c(=O)c2c3c(cnc2n(C)c1=O)C(=O)CC(c1cccc(Cl)c1)C3` (stereo not given) returned an RP-LC retention time of 1020 s.
Next, `O=[N+]([O-])c1ccc(-c2nc(NCCCO)c3ccccc3n2)cc1`: 595 s.
In the case of `O=C(c1ccccc1OCC1CCCN(C2CCC2)C1)N1CCCCC1` (stereo not given), the RP-LC retention time was 632 s.
For `CCCn1c(=O)sc2cc(S(=O)(=O)N3CCC(C(=O)N4CCc5ccccc5C4)CC3)ccc21`, the RP-LC retention time worked out at 989 s.
The molecule `Cc1cc(C)cc(C(=O)N2CCC(c3nc4ccncc4n3C)C2)c1` (stereo not given) showed an RP-LC retention time of 547 s.
With `CN(C)C(=O)c1cc2c(s1)CCC(C(=O)N1CCN(C3CCCC3)CC1)C2` (stereo not given), the RP-LC retention time was found to be 573 s.
The figure for `O=C(NC1CCCN(c2ccc(=O)[nH]n2)C1)c1cc2cc(Cl)ccc2[nH]1` (stereo not given) is 743 s; for `Cc1cc(C)n(-c2nc(CC(=O)N3CCN(c4ccc(F)cc4)CC3)cs2)n1` it is 968 s.
Next, `Cc1cccc(NC(=O)N2CCN(CC(=O)c3c(C)n(C)c4ccccc34)CC2)c1`: 693 s; `CCc1ccc(OCc2nc(CC(=O)Nc3nc(-c4ccc(C)cc4)cs3)cs2)cc1`: 1270 s.
